Assay: Hematology assays in cynomolgus monkeys (Example 46)
Format: in vivo
Protocol: Groups, each consisting of two male and two female monkeys, were injected subcutaneously with 25 mg/kg of ISIS 416850, ISIS 449709, ISIS 445522, ISIS 449710, ISIS 449707, ISIS 449711, ISIS 449708, 416858, and ISIS 445531. Antisense oligonucleotide was administered to the monkeys at 25 mg/kg three times per week for week 1 and 25 mg/kg twice per week for weeks 2 to 8. A control group, consisting of two male and two female monkeys was injected subcutaneously with PBS according to the same dosing regimen. Body weights were taken 14 days and 7 days before the start of treatment and were then measured weekly throughout the treatment period. Blood samples were collected 14 days and 5 days before the start of treatment and subsequently several times during the dosing regimen for PT and aPTT measurements, and measurement of various hematologic factors. On day 55, the monkeys were euthanized by exsanguination while under deep anesthesia, and organs harvested for further analysis.

For “ISIS 416850: MOE gapmer, nucleobases 1275 to 1318 of SEQ ID NO: 1 (Table 8) (antisense TGCACAGTTTCTGGCAGGCC; MOE gapmer, wing and gap sizes not given here)”, the HCT (Day 17) was 42%, the MCH (Day 17) was 23.7 pg and the MCHC (Day 17) was 31.3 g/dL. The MCV (Day 17) was 76 fL, the RBC count (Day 17) was 5.6e+06 µL⁻¹ and the WBC count (Day 17) was 11000 µL⁻¹. It also gave a hemoglobin content (Day 17) of 13.3 g/dL, a monocytes (Day 17) of 3.2% and a neutrophils (Day 17) of 95%. For the same substance, the platelet count (Day 17) was 467 ×100/μL, the HCT (Day 31) was 42% and the MCH (Day 31) was 23.3 pg. It also gave an MCHC (Day 31) of 31.0 g/dL, an MCV (Day 31) of 75 fL and an RBC count (Day 31) of 5.6e+06 µL⁻¹. The WBC count (Day 31) was 12000 µL⁻¹, the hemoglobin content (Day 31) was 13.1 g/dL and the monocytes (Day 31) was 3.7%. For the same substance, the neutrophils (Day 31) was 100%, the platelet count (Day 31) was 507 ×100/μL and the HCT (Day 45) was 42%. The MCH (Day 45) was 22.7 pg, the MCHC (Day 45) was 31.0 g/dL and the MCV (Day 45) was 75 fL. It also gave an RBC count (Day 45) of 5.7e+06 µL⁻¹, a WBC count (Day 45) of 12000 µL⁻¹ and a hemoglobin content (Day 45) of 13.1 g/dL. The monocytes (Day 45) was 3.8%, the neutrophils (Day 45) was 85% and the platelet count (Day 45) was 453 ×100/μL. The HCT (Day 55) was 40%, the MCH (Day 55) was 22.9 pg and the MCHC (Day 55) was 30.9 g/dL. It also gave an MCV (Day 55) of 73 fL, an RBC count (Day 55) of 5.6e+06 µL⁻¹ and a WBC count (Day 55) of 10000 µL⁻¹. For the same substance, the hemoglobin content (Day 55) was 12.7 g/dL, the monocytes (Day 55) was 3.4% and the neutrophils (Day 55) was 108%. For the same substance, the platelet count (Day 55) was 396 ×100/μL, the HCT (Day-5) was 44% and the MCH (Day-5) was 23.7 pg. It also gave an MCHC (Day-5) of 30.7 g/dL, an MCV (Day-5) of 77 fL and an RBC count (Day-5) of 5.7e+06 µL⁻¹. The WBC count (Day-5) was 13000 µL⁻¹, the hemoglobin content (Day-5) was 13.5 g/dL and the monocytes (Day-5) was 2.9%. For the same substance, the neutrophils (Day-5) was 109%, the platelet count (Day-5) was 517 ×100/μL and the HCT (Day-14) was 41%. The MCH (Day-14) was 23.7 pg, the MCHC (Day-14) was 32.0 g/dL and the MCV (Day-14) was 74 fL. For the same substance, the RBC count (Day-14) was 5.5e+06 µL⁻¹, the WBC count (Day-14) was 12000 µL⁻¹ and the hemoglobin content (Day-14) was 13.0 g/dL. For the same substance, the monocytes (Day-14) was 1.9%, the neutrophils (Day-14) was 88% and the platelet count (Day-14) was 462 ×100/μL.

“ISIS 416858: MOE gapmer, nucleobases 1275 to 1318 of SEQ ID NO: 1 (Table 8) (antisense ACGGCATTGGTGCACAGTTT; MOE gapmer, wing and gap sizes not given here)” showed an HCT (Day 17) of 43%, an MCH (Day 17) of 23.1 pg and an MCHC (Day 17) of 29.9 g/dL. The MCV (Day 17) was 78 fL, the RBC count (Day 17) was 5.6e+06 µL⁻¹ and the WBC count (Day 17) was 10000 µL⁻¹. The hemoglobin content (Day 17) was 13.0 g/dL, the monocytes (Day 17) was 4.0% and the neutrophils (Day 17) was 54%. For the same substance, the platelet count (Day 17) was 358 ×100/μL, the HCT (Day 31) was 43% and the MCH (Day 31) was 23.0 pg. The MCHC (Day 31) was 31.0 g/dL, the MCV (Day 31) was 76 fL and the RBC count (Day 31) was 5.6e+06 µL⁻¹. The WBC count (Day 31) was 9000 µL⁻¹, the hemoglobin content (Day 31) was 12.8 g/dL and the monocytes (Day 31) was 4.7%. For the same substance, the neutrophils (Day 31) was 54%, the platelet count (Day 31) was 289 ×100/μL and the HCT (Day 45) was 41%. It also gave an MCH (Day 45) of 22.2 pg, an MCHC (Day 45) of 30.3 g/dL and an MCV (Day 45) of 75 fL. For the same substance, the RBC count (Day 45) was 5.5e+06 µL⁻¹, the WBC count (Day 45) was 8000 µL⁻¹ and the hemoglobin content (Day 45) was 12.3 g/dL. The monocytes (Day 45) was 4.6%, the neutrophils (Day 45) was 61% and the platelet count (Day 45) was 287 ×100/μL. The HCT (Day 55) was 39%, the MCH (Day 55) was 22.8 pg and the MCHC (Day 55) was 30.4 g/dL. It also gave an MCV (Day 55) of 75 fL, an RBC count (Day 55) of 5.3e+06 µL⁻¹ and a WBC count (Day 55) of 9000 µL⁻¹. For the same substance, the hemoglobin content (Day 55) was 12.0 g/dL, the monocytes (Day 55) was 4.6% and the neutrophils (Day 55) was 73%. For the same substance, the platelet count (Day 55) was 257 ×100/μL, the HCT (Day-5) was 44% and the MCH (Day-5) was 23.5 pg. For the same substance, the MCHC (Day-5) was 29.8 g/dL, the MCV (Day-5) was 79 fL and the RBC count (Day-5) was 5.5e+06 µL⁻¹. The WBC count (Day-5) was 11000 µL⁻¹, the hemoglobin content (Day-5) was 13.0 g/dL and the monocytes (Day-5) was 2.7%. For the same substance, the neutrophils (Day-5) was 84%, the platelet count (Day-5) was 433 ×100/μL and the HCT (Day-14) was 41%. The MCH (Day-14) was 23.2 pg, the MCHC (Day-14) was 31.1 g/dL and the MCV (Day-14) was 75 fL. The RBC count (Day-14) was 5.5e+06 µL⁻¹, the WBC count (Day-14) was 10000 µL⁻¹ and the hemoglobin content (Day-14) was 12.8 g/dL. The monocytes (Day-14) was 2.0%, the neutrophils (Day-14) was 65% and the platelet count (Day-14) was 369 ×100/μL.

— patent US20230263822A1, “MODULATION OF FACTOR 11 EXPRESSION” (Ionis Pharmaceuticals, Inc., priority 2008, published 2023)
